Experimental data as given in patent US7799821B2, “Therapeutic compounds” (Allergan, Inc., priority 2004, dated 2010).

biological target: T1, human EP2 receptors (Homo sapiens, UniProt P43116); assay: Competition radioligand binding ([3H]PGE2), EP2; settings: unit inferred; read-out: EP2 data Ki
T1 construct: expressed in transfected cells; host or cells: HEK 293
Procedure: Competition binding experiments were performed in a medium containing Hank's balanced salt solution, […], membranes (˜60 μg protein) or 2×10^5 cells from HEK 293 cells stably expressing human EP2 receptors, [^3H]PGE2 (10 nM) and various concentrations of test compounds in a total volume of 300 μl. Reaction mixtures were incubated at 23° C. for 60 min, and were filtered over Whatman GF/B filters under vacuum. Filters were washed three times with 5 ml ice-cold buffer containing 50 mM Tris/HCl (pH 7.3). Non-specific binding was estimated in the presence of excess unlabeled PGE2 (10 μM). Binding data fitted to the binding model for a single class of binding sites, using nonlinear regression analysis. IC50 values thus obtained were converted to Ki using the equation of Ki=(IC50/(1+[L]/KD) where [L] represents PGE2 concentration (10 nM) and KD the dissociation constant for [^3H]PGE2 at human EP2 receptors (40 nM).
(§1) HEK-293 cells stably expressing the human or feline FP receptor, or EP1, EP2, or EP4 receptors were washed with TME buffer, scraped from the bottom of the flasks, and homogenized for 30 sec using a Brinkman PT 10/35 polytron. TME buffer was added to achieve a final 40 ml volume in the centrifuge tubes (the composition of TME is 100 mM TRIS base, 20 mM MgCl2, […]; 10N HCl is added to achieve a pH of 7.4).
(§2) The cell homogenate was centrifuged at 19000 r.p.m. for 20 min at 4° C. using a Beckman Ti-60 rotor. The resultant pellet was resuspended in TME buffer to give a final 1 mg/ml protein concentration, as determined by Biorad assay. Radioligand binding competition assays vs. [^3H-]17 —phenyl PGF2α (5 nM) were performed in a 100 μl volume for 60 min. Binding reactions were started by adding plasma membrane fraction. The reaction was terminated by the addition of 4 ml ice-cold TRIS-HCl buffer and rapid filtration through glass fiber GF/B filters using a Brandel cell harvester. The filters were washed 3 times with ice-cold buffer and oven dried for one hour.
(§3) [^3H-] PGE2 (specific activity 180 Ci mmol) was used as the radioligand for EP receptors. [^3H] 17-phenyl PGF2α was employed for FP receptor binding studies. Binding studies employing EP1, EP2, EP4 and FP receptors were performed in duplicate in at least three separate experiments. A 200 μl assay volume was used. Incubations were for 60 min at 25° C. and were terminated by the addition of 4 ml of ice-cold 50 mM TRIS-HCl, followed by rapid filtration through Whatman GF/B filters and three additional 4 ml washes in a cell harvester (Brandel). Competition studies were performed using a final concentration of 5 nM [^3H]—PGE2, or 5 nM [^3H] 17-phenyl PGF2α and non-specific binding determined with 10^−5M of unlabeled PGE2, or 17-phenyl PGF2α, according to receptor subtype studied.

T1 sequence (P43116 whole entry): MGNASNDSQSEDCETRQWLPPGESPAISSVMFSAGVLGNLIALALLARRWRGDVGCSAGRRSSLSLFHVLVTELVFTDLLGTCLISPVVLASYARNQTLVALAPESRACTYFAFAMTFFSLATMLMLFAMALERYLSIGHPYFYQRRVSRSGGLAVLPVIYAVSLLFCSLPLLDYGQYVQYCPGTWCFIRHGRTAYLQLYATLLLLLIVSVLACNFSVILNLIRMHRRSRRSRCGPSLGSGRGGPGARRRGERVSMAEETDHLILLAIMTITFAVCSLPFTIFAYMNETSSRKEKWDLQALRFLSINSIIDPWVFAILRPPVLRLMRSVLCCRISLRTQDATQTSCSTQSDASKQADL

| Compound | Ki [nM] |
| --- | --- |
| CCCCCC(O)c1ccc(N2C(=O)CC[C@@H]2COc2ccc(C(=O)O)cc2)cc1 (stereo partly drawn) [drawing 157] | 22700 |
| CCCCCC(O)c1ccc(N2C(=O)CC[C@@H]2COCc2ccc(C(=O)O)o2)cc1 (stereo partly drawn) | 2030 |
| CCCC(O)c1ccc(N2C(=O)CC[C@@H]2COCc2ccc(C(=O)O)s2)cc1 (stereo partly drawn) | 1640 |

Now those with a lower Ki, led by results:

| Ki [nM] | Compound |
| --- | --- |
| 116 | CCCCCC(O)c1ccc(N2C(=O)CC[C@@H]2COCc2ccc(C(=O)O)s2)cc1 (single isomer, unassigned) [drawing 149] |
| 387 | CCCCC(O)c1ccc(N2C(=O)CC[C@@H]2COCc2ccc(C(=O)O)s2)cc1 (stereo partly drawn) |
| 163 | CCCCCC(=O)c1ccc(N2C(=O)CC[C@@H]2COCc2ccc(C(=O)O)s2)cc1 |

biological target: T2, EP4 receptors (Homo sapiens, UniProt P35408); assay: Radioligand binding ([3H]PGE2), EP4; settings: unit inferred; read-out: EP4 data KI
T2 construct: expressed in transfected cells; host or cells: HEK-293
T2 sequence (P35408 whole entry): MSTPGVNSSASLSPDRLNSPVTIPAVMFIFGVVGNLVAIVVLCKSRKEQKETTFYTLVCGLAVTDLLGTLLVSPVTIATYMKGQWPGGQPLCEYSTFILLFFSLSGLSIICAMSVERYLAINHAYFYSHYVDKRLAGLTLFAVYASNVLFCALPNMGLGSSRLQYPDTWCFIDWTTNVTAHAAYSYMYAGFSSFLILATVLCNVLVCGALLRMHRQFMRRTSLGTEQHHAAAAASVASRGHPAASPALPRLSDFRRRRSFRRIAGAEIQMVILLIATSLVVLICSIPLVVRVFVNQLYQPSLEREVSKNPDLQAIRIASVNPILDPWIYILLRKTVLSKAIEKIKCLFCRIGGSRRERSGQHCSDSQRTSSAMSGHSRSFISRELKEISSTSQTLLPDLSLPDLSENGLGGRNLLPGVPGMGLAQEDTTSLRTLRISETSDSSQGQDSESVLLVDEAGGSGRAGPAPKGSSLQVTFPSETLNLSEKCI
Procedure: as §1, §2, §3

| Compound | Ki [nM] |
| --- | --- |
| CCCCCC(O)c1ccc(N2C(=O)CC[C@@H]2COc2ccc(C(=O)O)cc2)cc1 (stereo partly drawn) [drawing 157] | 8750 |
| CCCCCC(O)c1ccc(N2C(=O)CC[C@@H]2COCc2ccc(C(=O)O)o2)cc1 (stereo partly drawn) | > 10000 |
| CCCC(O)c1ccc(N2C(=O)CC[C@@H]2COCc2ccc(C(=O)O)s2)cc1 (stereo partly drawn) | > 10000 |

More lines, now with the values ahead:

| Ki [nM] | Compound |
| --- | --- |
| 6030 | CCCCCC(O)c1ccc(N2C(=O)CC[C@@H]2COCc2ccc(C(=O)O)s2)cc1 (single isomer, unassigned) [drawing 149] |
| > 10000 | CCCCC(O)c1ccc(N2C(=O)CC[C@@H]2COCc2ccc(C(=O)O)s2)cc1 (stereo partly drawn) |
| > 10000 | CCCCCC(=O)c1ccc(N2C(=O)CC[C@@H]2COCc2ccc(C(=O)O)s2)cc1 |

biological target: T3, hEP2/Gqs5 (Homo sapiens, UniProt P43116); assay: FLIPR calcium signal, hEP2; format: cell-based; settings: unit inferred; other columns of the table in nM; read-out: EP2 data flipr EC50
T3 construct: expressed in transfected cells; host or cells: HEK-293(EBNA)
T3 sequence (P43116 whole entry): as the sequence (P43116 whole entry) above
Procedure: (§4) HEK-293(EBNA) cells, stably expressing one type or subtype of recombinant human prostaglandin receptors (prostaglandin receptors expressed: hDP/Gqs5; hEP1; hEP2/Gqs5; hEP3A/Gqi5; hEP4/Gqs5; hFP; hIP; hTP), were cultured in 100 mm culture dishes in high-glucose DMEM medium containing 10% fetal bovine serum, 2 mM 1-glutamine, 250 μg/ml geneticin (G418) and 200 μg/ml hygromycin B as selection markers, and 100 units/ml penicillin G, 100 μg/ml streptomycin and 0.25 μg/ml amphotericin B. • (b) Calcium Signal Studies on the FLIPR™
(§5) Cells were seeded at a density of 5×10^4 cells per well in Biocoat® Poly-D-lysine-coated black-wall, clear-bottom 96-well plates (Becton-Dickinson) and allowed to attach overnight in an incubator at 37° C. Cells were then washed two times with HBSS-HEPES buffer (Hanks Balanced Salt Solution without bicarbonate and phenol red, 20 mM HEPES, pH 7.4) using a Denley Cellwash plate washer (Labsystems). After 45 minutes of dye-loading in the dark, using the calcium-sensitive dye Fluo-4 AM at a final concentration of 2 μM, plates were washed four times with HBSS-HEPES buffer to remove excess dye leaving 100 μl in each well. Plates were re-equilibrated to 37° C. for a few minutes.
(§6) Cells were excited with an Argon laser at 488 nm, and emission was measured through a 510-570 nm bandwidth emission filter (FLIPR™, Molecular Devices, Sunnyvale, Calif.). Drug solution was added in a 50 μl volume to each well to give the desired final concentration. The peak increase in fluorescence intensity was recorded for each well. On each plate, four wells each served as negative (HBSS-HEPES buffer) and positive controls (standard agonists: BW245C (hDP); PGE2 (hEP1; hEP2/Gqs5; hEP3A/Gqi5; hEP4/Gqs5); PGF2α (hFP); carbacyclin (hIP); U-46619 (hTP), depending on receptor). The peak fluorescence change in each drug-containing well was then expressed relative to the controls.
(§7) Compounds were tested in a high-throughput (HTS) or concentration-response (CoRe) format. In the HTS format, forty-four compounds per plate were examined in duplicates at a concentration of 10^−5 M. To generate concentration-response curves, four compounds per plate were tested in duplicates in a concentration range between 10^−5 and 10^−11 M. The duplicate values were averaged. In either, HTS or CoRe format each compound was tested on at least 3 separate plates using cells from different passages to give an n≧3.

| Compound | EC50 [nM] |
| --- | --- |
| CCCCCC(O)c1ccc(N2C(=O)CC[C@@H]2COCc2ccc(C(=O)O)o2)cc1 (stereo partly drawn) | 388 |
| CCCC(O)c1ccc(N2C(=O)CC[C@@H]2COCc2ccc(C(=O)O)s2)cc1 (stereo partly drawn) | 426 |

The remaining lines, values ahead:

| EC50 [nM] | Compound |
| --- | --- |
| 212 | CCCCC(O)c1ccc(N2C(=O)CC[C@@H]2COCc2ccc(C(=O)O)s2)cc1 (stereo partly drawn) |
| 215 | CCCCCC(=O)c1ccc(N2C(=O)CC[C@@H]2COCc2ccc(C(=O)O)s2)cc1 |

biological target: T4, hEP3A/Gqi5 (Homo sapiens, UniProt P43115); assay: FLIPR calcium signal, hEP3A; format: cell-based; settings: read-out: Other Receptors EC50 hEP3A
T4 construct: expressed in transfected cells; host or cells: HEK-293(EBNA)
T4 sequence (P43115 1-390): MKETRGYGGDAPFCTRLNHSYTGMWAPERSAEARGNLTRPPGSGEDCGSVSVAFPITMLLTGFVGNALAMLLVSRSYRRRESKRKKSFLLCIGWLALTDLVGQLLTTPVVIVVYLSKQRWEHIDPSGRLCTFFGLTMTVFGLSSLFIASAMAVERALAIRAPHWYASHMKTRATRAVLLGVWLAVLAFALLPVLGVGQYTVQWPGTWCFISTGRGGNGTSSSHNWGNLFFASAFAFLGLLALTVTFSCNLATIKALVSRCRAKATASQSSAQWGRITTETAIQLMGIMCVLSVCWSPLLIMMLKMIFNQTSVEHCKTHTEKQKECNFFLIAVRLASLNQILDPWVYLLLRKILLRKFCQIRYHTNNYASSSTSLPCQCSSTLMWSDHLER
Procedure: as §4, §5, §6, §7

| EC50 [nM] | Compound |
| --- | --- |
| 1930 | CCCCCC(O)c1ccc(N2C(=O)CC[C@@H]2COCc2ccc(C(=O)O)o2)cc1 (stereo partly drawn) |
| 1200 | CCCCCC(O)c1ccc(N2C(=O)CC[C@@H]2COCc2ccc(C(=O)O)s2)cc1 (single isomer, unassigned) [drawing 149] |

biological target: T5, hEP4/Gqs5 (Homo sapiens, UniProt P35408); assay: FLIPR calcium signal, hEP4; format: cell-based; settings: unit inferred; read-out: EP4 data flipr EC50
T5 construct: expressed in transfected cells; host or cells: HEK-293(EBNA)
T5 sequence (P35408 whole entry): as the sequence (P35408 whole entry) above
Procedure: as §4, §5, §6, §7

| EC50 [nM] | Compound |
| --- | --- |
| > 10000 | CCCCCC(O)c1ccc(N2C(=O)CC[C@@H]2COCc2ccc(C(=O)O)s2)cc1 (single isomer, unassigned) [drawing 149] |

biological target: T6, HEK-EBNA cells expressing a PG EP2 receptor subtype (Homo sapiens, UniProt P43116); assay: cAMP assay, EP2; format: cell-based; settings: unit inferred; read-out: EP2 data cAMP EC50
T6 construct: expressed in transfected cells; host or cells: HEK-EBNA
T6 sequence (P43116 whole entry): as the sequence (P43116 whole entry) above
Procedure: A 384-well drug plate was prepared to contain 6 test compounds, PGE2 and cAMP in 16 serial dilutions in triplicate, using a Biomek station. HEK-EBNA cells expressing a target PG receptor subtype (EP2 or EP4) were suspended in a stimulation buffer (HBSS, 0.1% BSA, 0.5 mM IBMX and 5 mM HEPES, pH 7.4) in a density of 10^4 cells/5 μl. The reaction was initiated by mixing 5 μL drug dilutions with 5 μl of HEK-EBNA cells in a well, carried out for 30 min at room temperature, and followed by the addition of 5 μl anti-cAMP acceptor beads in the control buffer with Tween-20 (25 mM NaCl, 0.03% Tween-20, 5 mM HEPES, pH7.4). After 30 min in the dark at room temperature, the mixtures were incubated with 15 μl biotinylated-cAMP/strepavidin donor beads in Lysis/Detection buffer (0.1% BSA, 0.3% Tween-20 and 5 mM HEPES, pH7.4) for 45 min at the room temperature. Fluorescence changes were read using a Fusion-alpha HT microplate reader.

| Compound | EC50 [nM] |
| --- | --- |
| CCCCCC(O)c1ccc(N2C(=O)CC[C@@H]2COCc2ccc(C(=O)O)o2)cc1 (stereo partly drawn) | 26 |
| CCCC(O)c1ccc(N2C(=O)CC[C@@H]2COCc2ccc(C(=O)O)s2)cc1 (stereo partly drawn) | 27 |

More lines, now with the values ahead:

| EC50 [nM] | Compound |
| --- | --- |
| 1.5 | CCCCCC(O)c1ccc(N2C(=O)CC[C@@H]2COCc2ccc(C(=O)O)s2)cc1 (single isomer, unassigned) [drawing 149] |
| 8 | CCCCC(O)c1ccc(N2C(=O)CC[C@@H]2COCc2ccc(C(=O)O)s2)cc1 (stereo partly drawn) |
| 8 | CCCCCC(=O)c1ccc(N2C(=O)CC[C@@H]2COCc2ccc(C(=O)O)s2)cc1 |
